Source: patent publication US11000512B2, “Use of DDX3 inhibitors as antiproliferative agents” (AZIENDA OSPEDALIERA UNIVERSITARIA SENESE, priority 2016, dated 2021)

Assays:
[1] = molecular target: T1, Human recombinant DDX3 (DDX3 wt helicase) (Homo sapiens, UniProt O00571); assay: Helicase assay (anti-enzymatic activity against the DDX3 helicase); assay type: biochemical; conditions: DDX3 helicase activity, dsRNA unwinding; n.a = Compound not active; read-out: ID50 (the source's name)
T1 construct: made in house
Procedure: The helicase activity of DDX3 wt was monitored by measuring the conversion of a double stranded (ds) RNA (labelled at the 5′-end of one strand with a 6-FAM fluorescent) into single stranded (ss) nucleic acid. A final concentration of 25 nM RNA substrate was used in the experiments, unless otherwise stated. Reactions were performed in 50 mM TrisHCl pH 7.5, 1 mM DTT, 0.2 mg/ml BSA, 5% glycerol and 100 μM ATP, 10 mM MgCl2 at 37° C. degrees for 10′ and stopped by adding EDTA 50 mM pH 8. Products were separated through non-denaturating 8% PAGE at 5 W for 4 hours in TBE buffer at 4° C. Substrates and products were quantified by laser scanning densitometry (Thyphoon-TRIO, GE Healthcare).
Human recombinant DDX3 was cloned, expressed and purified as described (Franca et al. Proteins 2007, 67, 1128-37).

[2] = tested on: Human adenocarcinomic alveolar basal epithelial cell line (A549); assay: Cytotoxicity test / growth inhibition, A549; assay type: cell-based; conditions: A549, 48 hours, cell counting
Procedure: (§1) Cells were purchased from American Type Culture Collection (ATCC, Manassas, Va., USA). The LNCaP (ATCC® CRL-1740™), A549 (ATCC® CCL-185™), MDA-MB-231 (ATCC® CRM-HTB-26™), 22Rv1 (ATCC® CRL-2505™), HCT-116 (ATCC® CCL-247™) and PC3 (ATCC® CRL-1435™) cells were maintained in Roswell Park Memorial Institute 1640 medium (RPMI; Euroclone, ECB9006L) supplemented with 10% fetal bovine serum (Euroclone; ECS0180L), 2 mM L-glutamine, 100 units/mL penicillin and […] streptomycin at 37° C. in an atmosphere of 5% CO2/air. DU145 (ATCC® HTB-81™), and DAOY (ATCC® HTB-186™) cells were maintained in Eagle's minimal essential medium (EMEM; Euro-clone, ECM0445L) supplemented with 10% fetal bovine serum (Euroclone; ECS0180L), 2 mM L-glutamine, 100 units/ml penicillin and […] streptomycin at 37° C. in an atmosphere of 5% CO2/air. SH-SY5Y (ATCC® CRL-2266™), DBRTG (ATCC® CRL-2020™), HeLa (ATCC® CCL-2™), HN6 cells (kindly provided by Dr Silvio Gutkind, UCSD Medical Center, Moores Cancer Center USA, Chen J. J et al, Oncotarget 2013, 4, 206-217)), U2OS (ATCC® HTB-96™), RD18 cells (kindly provided by Dr P. Boccuni Memorial Sloan-Kettering Cancer Center, New York, USA Vella S. et al. Clin Epigenetics. 2015 6; 7-82), cells were maintained in Dulbecco's modified Eagle's medium (DMEM; Euroclone, ECB7501L) supplemented with 10% fetal bovine serum (Euroclone; ECS0180L), 2 mM L-glutamine, 100 units/ml penicillin and 100 mg/mL streptomycin at 37° C. in an atmosphere of 5% CO2/air.
(§2) Cell lines were seeded at appropriate densities in 2 mL growth medium in 6-wells culture plates 24 hours before the treatment with the inhibitor compounds. After 24 h the culture medium was removed and fresh medium containing increasing concentrations of chemical compounds was added to cells. The fixed final concentrations were: 0.1 μM, 1 μM, 10 μM, 100 μM. DMSO was the vehicle used for dilution of the compounds and its final concentration on cells was less than 0.2%. Medium-only containing wells were included as controls. Cells were incubated 48 hours with drugs and, then, cell viability was evaluated.
(§3) Cells were detached from each well of the 6-wells plates with 300 μL of Trypsin and suspended in culture medium to a final volume of 1 mL. Cell viability was then assessed through cell counting. Cells were diluted in 1:50 ratio of an isotonic buffered diluent, Isoton (Backman Coulter), following the manufacturer's instructions, and counted using an automated cell counter (Z2 series Coulter Counter, Beckman Coulter). Each cell count was performed in three replicates. The values corresponding to the relative survival of cells in presence of each chemical compound at single concentrations were normalized to the untreated controls. Then, the half maximal inhibitory concentration (IC50) value, which represent the drug concentration that is required to induce a 50% growth inhibition in vitro, was calculated with GraphPad Prism 6.0 software using the best fitting sigmoid curve.

[3] = tested on: Human Prostate cell line derived from brain metastasis (DU-145); assay: Cytotoxicity test / growth inhibition, DU-145; assay type: cell-based; conditions: DU-145, 48 hours, cell counting
Procedure: as §1, §2
as §3, with “Then, the half maximal inhibitory concentration (IC50) value, which represent the drug concentration that is required to induce a 50% growth inhibition in vitro, was calculated with GraphPad Prism 6.0 software using the best fitting sigmoid curve.” left out

[4] = tested on: Human Prostate cancer cell line (PC3); assay: Cytotoxicity test / growth inhibition, PC3; assay type: cell-based; conditions: PC3, 48 hours, cell counting
Procedure: as §1, with “2015 6; 7-82), cells were maintained in Dulbecco's modified Eagle's medium (DMEM; Euroclone, ECB7501L) supplemented with 10% fetal bovine serum (Euroclone; ECS0180L), 2 mM L-glutamine, 100 units/ml penicillin and 100 mg/mL streptomycin at 37° C. in an atmosphere of 5% CO2/air.” left out
(§4) Cell lines were seeded at appropriate densities in 2 mL growth medium in 6-wells culture plates 24 hours before the treatment with the inhibitor compounds. […] Cells were incubated 48 hours with drugs and, then, cell viability was evaluated.
(§5) Cells were detached from each well of the 6-wells plates with 300 μL of Trypsin and suspended in culture medium to a final volume of 1 mL. Cell viability was then assessed through cell counting. Cells were diluted in 1:50 ratio of an isotonic buffered diluent, Isoton (Backman Coulter), following the manufacturer's instructions, and counted using an automated cell counter (Z2 series Coulter Counter, Beckman Coulter). […]

[5] = tested on: Human Glioblastoma cell line (U87); assay: Cytotoxicity test / growth inhibition, U87; assay type: cell-based; conditions: U87, 48 hours, cell counting, mM
Procedure: as §2
as §5, with “Coulter). Each cell count was performed in three replicates. The values corresponding to the relative survival of cells in presence of each chemical compound at single concentrations were normalized to the untreated controls.” for “Coulter).”

[6] = Parallel Artificial Membrane Permeability Assay (PAMPA), GI; assay type: in vitro ADME; conditions: GI (intestinal) PAMPA, value in brackets
Procedure: Parallel Artificial Membrane Permeability Assay (PAMPA). Donor solution (0.5 mM) was prepared by diluting 1 mM dimethylsulfoxide (DMSO) compound stock solution using phosphate buffer (pH 7.4, 0.025 M). Filters were coated with 5 μL of a 1% (w/v) dodecane solution of phosphatidylcholine prepared from CHCl3 solution 10% w/v, for intestinal permeability. Donor solution (150 μL) was added to each well of the filter plate. To each well of the acceptor plate were added 300 μL of solution (50% DMSO in phosphate buffer). All compounds were tested in three different plates on different days. The sandwich was incubated for 5 h at room temperature under gentle shaking. After the incubation time, the plates were separated, and samples were taken from both receiver and donor sides and analyzed using LC with UV detection at 280 nm.
LC analysis were performed with a Varian Prostar HPLC system (Varian Analytical Instruments, USA) equipped with a binary pump with a manual injection valve and model Prostar 325 UV-VIS Detector. Chromatographic separations were conducted using a Polaris C18-A column (150-4.6 mm, 5 μm particle size) at a flow rate of 0.8 mL min^−1 with a mobile phase composed of 60% ACN/40% H2O.
Permeability (Papp) for PAMPA was calculated according to the following equation, obtained from Wohnsland and Faller and Sugano et al. equation with some modification in order to obtain permeability values in cm s^−1,
where VA is the volume in the acceptor well, VD is the volume in the donor well (cm^3), A is the “effective area” of the membrane (cm^2), t is the incubation time (s) and r the ratio between drug concentration in the acceptor and equilibrium concentration of the drug in the total volume (VD+VA). Drug concentration is estimated by using the peak area integration.
Membrane retentions (%) were calculated according to the following equation: […]
where r is the ratio between drug concentration in the acceptor and equilibrium concentration, D, A, and Eq represented drug concentration in the donor, acceptor and equilibrium solution, respectively.

[7] = tested on: Human cervical carcinoma cell line (HeLa); assay: Cytotoxicity test / growth inhibition, HeLa; assay type: cell-based; conditions: 48 hours, cell counting, mM
Procedure: as §1, with “2015 6; 7-82), cells were maintained in Dulbecco's modified Eagle's medium (DMEM; Euroclone, ECB7501L) supplemented with 10% fetal bovine serum (Euroclone; ECS0180L), 2 mM L-glutamine, 100 units/ml penicillin and 100 mg/mL streptomycin at 37° C. in an atmosphere of 5% CO2/air.” left out
as §4, §5

[8] = tested on: Human Neuroblastoma cell line (SH-SY5Y); assay: Cytotoxicity test / growth inhibition, SH-SY5Y; assay type: cell-based; conditions: 48 hours, cell counting
Procedure: Cells were purchased from American Type Culture Collection (ATCC, Manassas, Va., USA). The LNCaP (ATCC® CRL-1740™), A549 (ATCC® CCL-185™), MDA-MB-231 (ATCC® CRM-HTB-26™), 22Rv1 (ATCC® CRL-2505™), HCT-116 (ATCC® CCL-247™) and PC3 (ATCC® CRL-1435™) cells were maintained in Roswell Park Memorial Institute 1640 medium (RPMI; Euroclone, ECB9006L) supplemented with 10% fetal bovine serum (Euroclone; ECS0180L), 2 mM L-glutamine, 100 units/mL penicillin and […] streptomycin at 37° C. in an atmosphere of 5% CO2/air. […]
as §4, §5

[9] = tested on: Human breast adenocarcinoma cell line (MDA-MB-231); assay: Cytotoxicity test / growth inhibition, MDA-MB-231; assay type: cell-based; conditions: MDA-MB-231, 48 hours, cell counting
Procedure: as §1, §2, §3

[10] = Microsomal Stability Assay (HLM); assay type: in vitro ADME; conditions: human liver microsomes, 37° C., 60 min, NADPH-generating system; percentage of not metabolized compound
Description: (§6) For the quantification was used an LC-MS system consisted of a Varian apparatus (Varian Inc) including a vacuum solvent degassing unit, two pumps (212-LC), a Triple Quadrupole MSD (Mod. 320-LC) mass spectrometer with ES interface and Varian MS Workstation System Control Vers. 6.9 software. Chromatographic separation was obtained using a Pursuit C18 column (50×2.0 mm) (Varian) with 3 μm particle size and gradient elution: eluent A being ACN and eluent B consisting of water. […] The flow rate was 0.2 mL min^−1 and injection volume was 5 μL. The instrument operated in positive mode and parameters were: detector 1850 V, drying gas pressure 25.0 psi, desolvation temperature 300.0° C., nebulizing gas 40.0 psi, needle 5000 V and shield 600 V. Nitrogen was used as nebulizer gas and drying gas. Collision induced dissociation was performed using Argon as the collision gas at a pressure of 1.8 mTorr in the collision cell. Microsomal Stability Assay. […] The reaction was stopped by cooling on ice and adding 1.0 mL of acetonitrile. The reaction mixtures were then centrifuged, and the parent drug and metabolites were subsequently determined by LC-UV-MS. Chromatographic analysis was performed with an Agilent 1100 LC/MSD VL system (G1946C) (Agilent Technologies, Palo Alto, Calif.) constituted by a vacuum solvent degassing unit, a binary high-pressure gradient pump, an 1100 series UV detector, and an 1100 MSD model VL benchtop mass spectrometer.
Chromatographic separation was obtained using a Varian Polaris C18-A column (150-4.6 mm, 5 μm particle size) and gradient elution: eluent A being ACN and eluent B consisting of water. […] The flow rate was 0.8 mL min^−1 and injection volume was 20 μL.
The Agilent 1100 series mass spectra detection (MSD) single-quadrupole instrument was equipped with the orthogonal spray API-ES (Agilent Technologies, Palo Alto, Calif.). Nitrogen was used as nebulizing and drying gas. The pressure of the nebulizing gas, the flow of the drying gas, the capillary voltage, the fragmentor voltage, and the vaporization temperature were set at 40 psi, 9 L/min, 3000 V, 70 V, and 350° C., respectively. UV detection was monitored at 280 nm. The LC-ESI-MS determination was performed by operating the MSD in the positive ion mode. Spectra were acquired over the scan range m/z 100-1500 using a step size of 0.1 u. The percentage of not metabolized compound was calculated by comparison with reference solutions.

Water Solubility Assay = assay type: physicochemical
Procedure: Water Solubility Assay. Each solid compound (1 mg) was added to 1 mL of water. The samples were shaked in a shaker bath at room temperature for 24-36 h. The suspensions were filtered through a 0.45 μm nylon filter (Acrodisc), and the solubilized compound determined by LC-MS-MS assay. For each compound the determination was performed in triplicate.
as §6

HIV = conditions: viral load of PBMCs infected with HIV; cited from earlier work

T1 sequence (O00571 whole entry): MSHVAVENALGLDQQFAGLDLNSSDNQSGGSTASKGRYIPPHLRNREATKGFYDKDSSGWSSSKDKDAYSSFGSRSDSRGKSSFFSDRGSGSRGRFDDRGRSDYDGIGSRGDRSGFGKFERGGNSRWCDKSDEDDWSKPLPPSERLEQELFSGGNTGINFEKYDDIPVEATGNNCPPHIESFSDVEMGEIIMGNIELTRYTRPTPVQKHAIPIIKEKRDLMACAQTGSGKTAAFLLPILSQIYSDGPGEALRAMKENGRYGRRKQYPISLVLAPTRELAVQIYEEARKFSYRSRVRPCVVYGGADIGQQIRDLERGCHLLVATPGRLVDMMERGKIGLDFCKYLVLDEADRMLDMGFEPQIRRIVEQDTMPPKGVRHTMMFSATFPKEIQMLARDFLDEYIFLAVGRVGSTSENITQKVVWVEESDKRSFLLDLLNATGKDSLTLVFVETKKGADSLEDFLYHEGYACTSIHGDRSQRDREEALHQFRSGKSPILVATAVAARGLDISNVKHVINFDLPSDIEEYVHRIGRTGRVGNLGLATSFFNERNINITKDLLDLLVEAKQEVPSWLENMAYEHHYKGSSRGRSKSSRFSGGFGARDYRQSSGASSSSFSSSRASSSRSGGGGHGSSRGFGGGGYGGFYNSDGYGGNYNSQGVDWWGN

CCCCc1nnc(-c2ccc(NC(=O)Nc3ccccc3C(F)(F)F)cc2)[nH]1 [Compound 119, 1-(4-(5-butyl-4H-1,2,4-triazol-3-yl)phenyl)-3-(2-(trifluoromethyl)phenyl)urea]
IC50 [1]: 1 µM | IC50 [2]: 14 µM | IC50 [3]: 12.9 µM | IC50 [4]: 46.3 µM

CCCCc1cn(-c2ccc(NC(=O)Nc3ccccc3C)cc2)nn1 [Compound 20a, 1-(4-(4-butyl-1H-1,2,3-triazol-1-yl)phenyl)-3-o-tolylurea]
IC50 [5]: 0.037 mM | PAMPA GI (RM %) membrane retention [6]: 19.1% | IC50 [7]: 0.054 mM | IC50 [8]: 149 µM | IC50 [9]: 18.7 µM | Sability % [10]: 99%

CCCCn1nnc(-c2ccc(NC(=O)Nc3ccccc3C)cc2)n1 [Compound 49, 1-(4-(2-butyl-2H-tetrazol-5-yl)phenyl)-3-(o-tolyl)urea]
PAMPA GI (RM %) membrane retention [6]: 24.8% | Sability % [10]: 95.6% | LogS (Water Solubility Assay; from aqueous solubility): <−8.5 | Aq. Solub. (Water Solubility Assay; water, room temperature, 24-36 h): <0.001 µg/mL

Cc1ccccc1NC(=O)Nc1cccc([N+](=O)[O-])c1 [EI01D]
EC50 (HIV): 10 µM
